Data as given in US11111251B2, “Positive allosteric modulators of the muscarinic acetylcholine receptor M1” (Vanderbilt University, priority 2016, dated 2021).
pEC50: −log10 of the molar value.

Target: T1, human mAChR M1 (Homo sapiens, UniProt P11229)
T1 sequence (P11229 1-460): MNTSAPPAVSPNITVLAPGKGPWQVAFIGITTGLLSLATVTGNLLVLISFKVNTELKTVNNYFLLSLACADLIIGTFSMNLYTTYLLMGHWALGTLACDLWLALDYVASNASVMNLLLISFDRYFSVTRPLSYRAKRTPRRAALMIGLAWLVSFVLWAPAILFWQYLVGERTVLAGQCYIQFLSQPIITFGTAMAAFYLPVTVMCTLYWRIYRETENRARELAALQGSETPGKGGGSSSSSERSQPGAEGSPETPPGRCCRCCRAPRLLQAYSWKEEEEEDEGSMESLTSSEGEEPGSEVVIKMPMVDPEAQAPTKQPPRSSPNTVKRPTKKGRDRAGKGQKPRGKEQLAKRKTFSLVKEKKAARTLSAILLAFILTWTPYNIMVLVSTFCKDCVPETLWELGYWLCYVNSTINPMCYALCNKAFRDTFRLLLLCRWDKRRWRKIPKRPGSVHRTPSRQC
Test: mAChR M1 cell-based functional assay: calcium mobilization, positive allosteric modulator mode (increase in EC20 acetylcholine response)
Settings: Table 2, human M1; for pEC50: read-out: Human M1 EC50; for Emax: read-out: Human M1 Emax (%)
In short: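 PAM potency reflects the concentration-dependent increase in calcium response to an EC20 acetylcholine challenge, given 144 s into a 300 s read after compound addition at 4 s (EC80 follows at 230 s). Cells were hM1-expressing CHO-K1, loaded 50 min with Fluo-4 AM. Curves used 11 points at 1:3 dilutions and four-parameter logistic fitting.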

C[C@@H]1COCC[C@@H]1NC(=O)c1cc(Cc2ccc(-c3cncs3)cc2)c2sccc2n1 [Compound 392, N-[(3S,4S)-3-methyltetrahydropyran-4-yl]-7-[(4-thiazol-5-ylphenyl)methyl]thieno[3,2-b]pyridine-5-carboxamide]
pEC50: 6.70
Emax: 65.4%

C[C@H]1COCC[C@@H]1NC(=O)c1cc(Cc2ccc(-c3cncs3)cc2)c2sccc2n1 [Compound 393, N-[(3R,4S)-3-methyltetrahydropyran-4-yl]-7-[(4-thiazol-5-ylphenyl)methyl]thieno[3,2-b]pyridine-5-carboxamide]
pEC50: 5.87
Emax: 68.7%

O=C(NC1CCOCC1)c1cc(Cc2ccc(-c3cncs3)cc2)c2sccc2n1 [Compound 394, N-tetrahydropyran-4-yl-7-[(4-thiazol-5-ylphenyl)methyl]thieno[3,2-b]pyridine-5-carboxamide]
pEC50: 6.63
Emax: 65.5%

O=C(N[C@H]1CCCC[C@@H]1O)c1cc(Cc2ccc(-c3cncs3)cc2)c2sccc2n1 [Compound 395, N-[(1S,2S)-2-hydroxycyclohexyl]-7-[(4-thiazol-5-ylphenyl)methyl]thieno[3,2-b]pyridine-5-carboxamide]
pEC50: 7.73
Emax: 60.1%

O=C(NCC1CCOC1)c1cc(Cc2ccc(-c3cncs3)cc2)c2sccc2n1 (stereo not drawn) [Compound 396, N-(tetrahydrofuran-3-ylmethyl)-7-[(4-thiazol-5-ylphenyl)methyl]thieno[3,2-b]pyridine-5-carboxamide]
pEC50: 5.97
Emax: 63%

O=C(N[C@H]1CCC[C@@H]1O)c1cc(Cc2ccc(-c3cncs3)cc2)c2sccc2n1 [Compound 397, N-[(1S,2S)-2-hydroxycyclopentyl]-7-[(4-thiazol-5-ylphenyl)methyl]thieno[3,2-b]pyridine-5-carboxamide]
pEC50: 6.95
Emax: 59.6%

O=C(NC1CC2(COC2)C1)c1cc(Cc2ccc(-c3cncs3)cc2)c2sccc2n1 [Compound 398, N-(2-oxaspiro[3.3]heptan-6-yl)-7-[(4-thiazol-5-ylphenyl)methyl]thieno[3,2-b]pyridine-5-carboxamide]
pEC50: 6.36
Emax: 60.9%

O=C(N[C@H]1CCOC1)c1cc(Cc2ccc(-c3cncs3)cc2)c2sccc2n1 [Compound 399, N-[(3S)-tetrahydrofuran-3-yl]-7-[(4-thiazol-5-ylphenyl)methyl]thieno[3,2-b]pyridine-5-carboxamide]
pEC50: 5.37
Emax: 45.1%

O=C(N[C@@H]1CCOC1)c1cc(Cc2ccc(-c3cncs3)cc2)c2sccc2n1 [Compound 400]
pEC50: 5.38
Emax: 51.4%

O=C(NC1CC(F)C1)c1cc(Cc2ccc(-c3cncs3)cc2)c2sccc2n1 (stereo not drawn) [Compound 401, N-(3-fluorocyclobutyl)-7-[(4-thiazol-5-ylphenyl)methyl]thieno[3,2-b]pyridine-5-carboxamide]
pEC50: 5.34
Emax: 40.5%

O=C(NC1COC1)c1cc(Cc2ccc(-c3cncs3)cc2)c2sccc2n1 [Compound 402, N-(oxetan-3-yl)-7-[(4-thiazol-5-ylphenyl)methyl]thieno[3,2-b]pyridine-5-carboxamide]
pEC50: < 5.00
Emax: 41.7%

COCCNC(=O)c1cc(Cc2ccc(-c3cncs3)cc2)c2sccc2n1 [Compound 403, N-(2-methoxyethyl)-7-[(4-thiazol-5-ylphenyl)methyl]thieno[3,2-b]pyridine-5-carboxamide]
pEC50: 5.16
Emax: 60.8%

COCCCNC(=O)c1cc(Cc2ccc(-c3cncs3)cc2)c2sccc2n1 [Compound 404, N-(3-methoxypropyl)-7-[(4-thiazol-5-ylphenyl)methyl]thieno[3,2-b]pyridine-5-carboxamide]
pEC50: 5.45
Emax: 56.7%

O=C(N[C@H]1CC[C@@H]1O)c1cc(Cc2ccc(-c3cncs3)cc2)c2sccc2n1 [Compound 405]
pEC50: 6.37
Emax: 73.5%

COCC(C)NC(=O)c1cc(Cc2ccc(-c3cncs3)cc2)c2sccc2n1 (stereo not drawn) [Compound 406, N-(2-methoxy-1-methyl-ethyl)-7-[(4-thiazol-5-ylphenyl)methyl]thieno[3,2-b]pyridine-5-carboxamide]
pEC50: 5.30
Emax: 59.1%

O=C(NC1CCOCC1)c1ccc(Cc2cc(C(=O)NC3CCOCC3)nc3ccsc23)cc1 [Compound 407, N-tetrahydropyran-4-yl-7-[[4-(tetrahydropyran-4-ylcarbamoyl)phenyl]methyl]thieno[3,2-b]pyridine-5-carboxamide]
pEC50: 6.43
Emax: 69.9%

O=C(NC1CC(F)(F)C1)c1ccc(Cc2cc(C(=O)NC3CC(F)(F)C3)nc3ccsc23)cc1 [Compound 408, N-(3,3-difluorocyclobutyl)-7-[[4-[(3,3-difluorocyclobutyl)carbamoyl]phenyl]methyl]thieno[3,2-b]pyridine-5-carboxamide]
pEC50: 6.40
Emax: 45%

CC1(C)CC(NC(=O)c2ccc(Cc3cc(C(=O)NC4CCOC(C)(C)C4)nc4ccsc34)cc2)CCO1 (stereo not drawn) [Compound 409, N-(2,2-dimethyltetrahydropyran-4-yl)-7-[[4-[(2,2-dimethyltetrahydropyran-4-yl)carbamoyl]phenyl]methyl]thieno[3,2-b]pyridine-5-carboxamide]
pEC50: 6.14
Emax: 68.8%

Cn1ccc(-c2ccc(Cc3cc(C(=O)N[C@@H]4COCC[C@H]4O)nc4ccsc34)cn2)n1 [Compound 410]
pEC50: 7.25
Emax: 63.4%

Cn1ccc(-c2ccc(Cc3cc(C(=O)N[C@H]4CCCCC[C@@H]4O)nc4ccsc34)cn2)n1 [Compound 411]
pEC50: 7.11
Emax: 57.6%

Cn1ccc(-c2ccc(Cc3cc(C(=O)N[C@@H]4CC[C@H]4O)nc4ccsc34)cn2)n1 [Compound 412]
pEC50: 6.65
Emax: 69.1%

Cn1ccc(-c2ccc(Cc3cc(C(=O)NC[C@H]4CCCO4)nc4ccsc34)cn2)n1 [Compound 413, 7-[[6-(1-methylpyrazol-3-yl)-3-pyridyl]methyl]-N-[[(2R)-tetrahydrofuran-2-yl]methyl]thieno[3,2-b]pyridine-5-carboxamide]
pEC50: 6.72
Emax: 72.5%

Cn1ccc(-c2ccc(Cc3cc(C(=O)NC[C@@H]4CCCO4)nc4ccsc34)cn2)n1 [Compound 414, 7-[[6-(1-methylpyrazol-3-yl)-3-pyridyl]methyl]-N-[[(2S)-tetrahydrofuran-2-yl]methyl]thieno[3,2-b]pyridine-5-carboxamide]
pEC50: 6.15
Emax: 71.5%

Cn1ccc(-c2ccc(Cc3cc(C(=O)NC4COC4)nc4ccsc34)cn2)n1 [Compound 415]
pEC50: 5.08
Emax: 63%

COCCNC(=O)c1cc(Cc2ccc(-c3ccn(C)n3)nc2)c2sccc2n1 [Compound 416, N-(2-methoxyethyl)-7-[[6-(1-methylpyrazol-3-yl)-3-pyridyl]methyl]thieno[3,2-b]pyridine-5-carboxamide]
pEC50: 5.89
Emax: 71.4%

Cn1ccc(-c2ccc(Cc3cc(C(=O)N[C@H]4CCOC4)nc4ccsc34)cn2)n1 [Compound 417, 7-[[6-(1-methylpyrazol-3-yl)-3-pyridyl]methyl]-N-[(3S)-tetrahydrofuran-3-yl]thieno[3,2-b]pyridine-5-carboxamide]
pEC50: 5.33
Emax: 66.6%

Cn1ccc(-c2ccc(Cc3cc(C(=O)N[C@@H]4CCOC4)nc4ccsc34)cn2)n1 [Compound 418, 7-[[6-(1-methylpyrazol-3-yl)-3-pyridyl]methyl]-N-[(3R)-tetrahydrofuran-3-yl]thieno[3,2-b]pyridine-5-carboxamide]
pEC50: 5.29
Emax: 67%

Cn1ccc(-c2ccc(Cc3cc(C(=O)NC4CC(F)C4)nc4ccsc34)cn2)n1 (stereo not drawn) [Compound 419, N-(3-fluorocyclobutyl)-7-[[6-(1-methylpyrazol-3-yl)-3-pyridyl]methyl]thieno[3,2-b]pyridine-5-carboxamide]
pEC50: 6.12
Emax: 70.1%

Cn1ccc(-c2ccc(Cc3cc(C(=O)NC4CC(F)(F)C4)nc4ccsc34)cn2)n1 [Compound 420, N-(3,3-difluorocyclobutyl)-7-[[6-(1-methylpyrazol-3-yl)-3-pyridyl]methyl]thieno[3,2-b]pyridine-5-carboxamide]
pEC50: 6.40
Emax: 64.2%

Cn1ccc(-c2ccc(Cc3cc(C(=O)NCC4CCN4)nc4ccsc34)cn2)n1 (stereo not drawn) [Compound 421, N-(azetidin-2-ylmethyl)-7-[[6-(1-methylpyrazol-3-yl)-3-pyridyl]methyl]thieno[3,2-b]pyridine-5-carboxamide]
pEC50: 6.37
Emax: 66.9%

Cn1ccc(-c2ccc(Cc3cc(C(=O)N[C@H]4CCCOC4)nc4ccsc34)cn2)n1 [Compound 422, 7-[[6-(1-methylpyrazol-3-yl)-3-pyridyl]methyl]-N-[(3S)-tetrahydropyran-3-yl]thieno[3,2-b]pyridine-5-carboxamide]
pEC50: 5.79
Emax: 71.6%

Cn1ccc(-c2ccc(Cc3cc(C(=O)N[C@@H]4CCCOC4)nc4ccsc34)cn2)n1 [Compound 423]
pEC50: 6.20
Emax: 70.6%

COCC(C)NC(=O)c1cc(Cc2ccc(-c3ccn(C)n3)nc2)c2sccc2n1 (stereo not drawn) [Compound 424, N-(2-methoxy-1-methyl-ethyl)-7-[[6-(1-methylpyrazol-3-yl)-3-pyridyl]methyl]thieno[3,2-b]pyridine-5-carboxamide]
pEC50: 5.07
Emax: 68.6%
